Results reported in patent US20160326142A1, “PYRAZOLE CARBOXAMIDE COMPOUNDS, COMPOSITIONS AND METHODS OF USE” (Genentech, Inc., priority 2012, published 2016).

Target: T1, ITK (Homo sapiens, UniProt Q08881)
T1 construct: purchased Invitrogen PV3875
T1 sequence (Q08881 1-620): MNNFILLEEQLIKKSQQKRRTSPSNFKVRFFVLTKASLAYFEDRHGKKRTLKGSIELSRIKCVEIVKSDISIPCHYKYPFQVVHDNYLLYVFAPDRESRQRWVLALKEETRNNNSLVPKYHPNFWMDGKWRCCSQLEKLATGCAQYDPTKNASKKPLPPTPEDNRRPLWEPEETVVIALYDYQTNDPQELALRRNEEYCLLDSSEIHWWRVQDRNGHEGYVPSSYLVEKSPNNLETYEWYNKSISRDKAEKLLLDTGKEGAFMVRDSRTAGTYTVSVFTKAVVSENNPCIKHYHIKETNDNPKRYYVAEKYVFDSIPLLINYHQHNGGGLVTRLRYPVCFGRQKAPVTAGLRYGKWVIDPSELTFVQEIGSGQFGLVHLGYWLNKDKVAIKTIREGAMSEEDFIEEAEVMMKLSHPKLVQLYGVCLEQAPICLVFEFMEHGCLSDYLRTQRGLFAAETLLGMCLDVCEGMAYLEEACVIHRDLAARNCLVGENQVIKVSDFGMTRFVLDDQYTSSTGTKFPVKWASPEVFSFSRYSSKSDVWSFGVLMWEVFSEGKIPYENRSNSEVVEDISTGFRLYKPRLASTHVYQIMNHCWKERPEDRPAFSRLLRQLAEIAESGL
Assay: ITK enzyme assay (Caliper or LCMS peptide phosphorylation)
Assay type: biochemical
Details: purified ITK (Invitrogen PV3875), 20 μM ATP, Ki by Morrison's quadratic equation
Summary of the method: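 Ki values come from Morrison quadratic fits of activity versus inhibitor concentration, adjusted for ATP-competitive inhibition against ATP/Km,app. Substrate and phosphopeptide from purified ITK reactions were resolved either microfluidically (Caliper, EDTA stop) or by LC-MS MRM (TCA stop).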

| Compound | Ki [nM] |
| --- | --- |
| CC1(C)CCc2c(C(=O)Nc3cnn(C(c4ccccc4)C4(F)CCNCC4)c3)n[nH]c2C1 (single isomer, unassigned) [Example 44a, N-(1-((4-fluoropiperidin-4-yl)(phenyl)methyl)-1H-pyrazol-4-yl)-6,6-dimethyl-4,5,6,7-tetrahydro-1H-indazole-3-carboxamide] | 6 |
| CC1(C)CCc2c(C(=O)Nc3cnn(C(c4ccccc4)[C@@H]4CNCCO4)c3)n[nH]c2C1 (single isomer, unassigned) [Example 66b] | 1 |
| Cn1cc(C(c2ccccc2)n2cc(NC(=O)c3n[nH]c4c3CC3CC3C4)cn2)cn1 (single isomer, unassigned) [Example 27c, N-(1-((1-methyl-1H-pyrazol-4-yl)(phenyl)methyl)-1H-pyrazol-4-yl)-1,4,4a,5,5a,6-hexahydro cyclopropa[f]indazole-3-carboxamide] | 45 |
| CC(c1cscn1)n1cc(NC(=O)c2n[nH]c3c2CCC(C)(C)C3)cn1 (single isomer, unassigned) [Example 84b, 6,6-dimethyl-N-(1-(1-(thiazol-4-yl)ethyl)-1H-pyrazol-4-yl)-4,5,6,7-tetrahydro-1H-indazole-3-carboxamide] | 13 |
| N#Cc1cccc(Cn2cc(NC(=O)c3n[nH]c4c3CCC(c3cn[nH]c3)C4)cn2)c1 (single isomer, unassigned) [Example 1b, N-(1-(3-cyanobenzyl)-1H-pyrazol-4-yl)-6-(1H-pyrazol-4-yl)-4,5,6,7-tetrahydro-1H-indazole-3-carboxamide] | 8.3 |
| O=C(Nc1cnn(Cc2ccccc2)c1)c1n[nH]c2c1CCC1(CCCO1)C2 (single isomer, unassigned) [Example 50b, N-(1-benzyl-1H-pyrazol-4-yl)-1′,4,4′,5,5′,7′-hexahydro-3H-spiro[furan-2,6′-indazole]-3′-carboxamide] | 620 |
| Cn1cc(C(c2ccccc2)n2cc(NC(=O)c3n[nH]c4c3C3CC3CC4)cn2)cn1 (single isomer, unassigned) [Example 35a, N-(1-((1-methyl-1H-pyrazol-4-yl)(phenyl)methyl)-1H-pyrazol-4-yl)-3,4,5,5a,6,6a-hexahydro cyclopropa[e]indazole-1-carboxamide] | 13 |
| CC1CC(C(c2ccccc2)n2cc(NC(=O)c3n[nH]c4c3CCC(C)(C)C4)cn2)CCS1(=O)=O (single isomer, unassigned) [Example 139a, 6,6-dimethyl-N-(1-((2-methyl-1,1-dioxidotetrahydro-2H-thiopyran-4-yl)(phenyl)methyl)-1H-pyrazol-4-yl)-4,5,6,7-tetrahydro-1H-indazole-3-carboxamide] | 1 |
| Cn1cc(C(c2ccccc2)n2cc(NC(=O)c3n[nH]c4c3C3CC3CC4)cn2)cn1 (single isomer, unassigned) [Example 35c, N-(1-((1-methyl-1H-pyrazol-4-yl)(phenyl)methyl)-1H-pyrazol-4-yl)-3,4,5,5a,6,6a-hexahydro cyclopropa[e]indazole-1-carboxamide] | 220 |
| CC1(C)CCc2c(C(=O)Nc3cnn(C(c4cccnc4)C4CC[S+]([O-])CC4)c3)n[nH]c2C1 (single isomer, unassigned) [Example 147d, 6,6-dimethyl-N-(1-((1-oxidotetrahydro-2H-thiopyran-4-yl)(pyridin-3-yl)methyl)-1H-pyrazol-4-yl)-4,5,6,7-tetrahydro-1H-indazole-3-carboxamide] | 0.6 |
| CC1(C)CCc2c(C(=O)Nc3cnn(C(c4ccccc4)C4CC[N+](C)([O-])CC4)c3)n[nH]c2C1 (single isomer, unassigned) [Example 140b, 4-((4-(6,6-dimethyl-4,5,6,7-tetrahydro-1H-indazole-3-carboxamido)-1H-pyrazol-1-yl)(phenyl)methyl)-1-methylpiperidine 1-oxide] | 14 |
| CC(c1ncco1)n1cc(NC(=O)c2n[nH]c3c2CCC(C)(C)C3)cn1 (single isomer, unassigned) [Example 103b, 6,6-dimethyl-N-(1-(1-(oxazol-2-yl)ethyl)-1H-pyrazol-4-yl)-4,5,6,7-tetrahydro-1H-indazole-3-carboxamide] | 9 |
| O=C(Nc1cnn(Cc2ccccc2)c1)c1n[nH]c2c1CC1(CCOC1)C2 (single isomer, unassigned) [Example 79b, N-(1-benzyl-1H-pyrazol-4-yl)-4,4′,5′,6-tetrahydro-1H,2′H-spiro[cyclopenta[c]pyrazole-5,3′-furan]-3-carboxamide] | 95 |
| N#Cc1cccc(Cn2cc(NC(=O)c3n[nH]c4c3CCC(O)C4)cn2)c1 (single isomer, unassigned) [Example 5a, N-(1-(3-cyanobenzyl)-1H-pyrazol-4-yl)-6-hydroxy-4,5,6,7-tetrahydro-1H-indazole-3-carboxamide] | 310 |
| CC1(C)CCc2c(C(=O)Nc3cnn(C(c4cccc(C#N)c4)C4CCS(=O)(=O)CC4)c3)n[nH]c2C1 (single isomer, unassigned) [Example 110b, N-(1-((3-cyanophenyl)(1,1-dioxidotetrahydro-2H-thiopyran-4-yl)methyl)-1H-pyrazol-4-yl)-6,6-dimethyl-4,5,6,7-tetrahydro-1H-indazole-3-carboxamide] | 3 |
| CC12Cc3[nH]nc(C(=O)Nc4cnn(C(CS(C)(=O)=O)c5cccnc5)c4)c3CC1C2 (single isomer, unassigned) [Example 93b, 5a-methyl-N-(1-(2-(methylsulfonyl)-1-(pyridin-3-yl)ethyl)-1H-pyrazol-4-yl)-1,4,4a,5,5a,6-hexahydrocyclopropa[f]indazole-3-carboxamide] | 1 |
| CCC(c1cnn(CC)c1)n1cc(NC(=O)c2n[nH]c3c2CCC(C)(C)C3)cn1 (single isomer, unassigned) [Example 99a, N-(1-(1-(1-ethyl-1H-pyrazol-4-yl)propyl)-1H-pyrazol-4-yl)-6,6-dimethyl-4,5,6,7-tetrahydro-1H-indazole-3-carboxamide] | 4 |
| CC1(C)CCc2c(C(=O)Nc3cnn(C(c4ccccc4)C4CS(=O)(=O)C4)c3)n[nH]c2C1 (single isomer, unassigned) [Example 89a] | 0.2 |
| CC1(C)CCc2c(C(=O)Nc3cnn(C(c4cccc(Cl)c4)C4CCOCC4)c3)n[nH]c2C1 (single isomer, unassigned) [Example 115a, N-(1-((3-chlorophenyl)(tetrahydro-2H-pyran-4-yl)methyl)-1H-pyrazol-4-yl)-6,6-dimethyl-4,5,6,7-tetrahydro-1H-indazole-3-carboxamide] | 0.2 |
| CC1(C)CCc2c(C(=O)Nc3cnn(C(c4cccc(S(C)(=O)=O)c4)C4CCOCC4)c3)n[nH]c2C1 (single isomer, unassigned) [Example 154a, 6,6-dimethyl-N-(1-((3-(methylsulfonyl)phenyl)(tetrahydro-2H-pyran-4-yl)methyl)-1H-pyrazol-4-yl)-4,5,6,7-tetrahydro-1H-indazole-3-carboxamide] | 0.1 |
| O=C(Nc1cnn(Cc2ccccc2)c1)c1n[nH]c2c1CCC(CO)C2 (single isomer, unassigned) [Example 14a, N-(1-benzyl-1H-pyrazol-4-yl)-6-(hydroxymethyl)-4,5,6,7-tetrahydro-1H-indazole-3-carboxamide] | 120 |
| CC1(C)CCc2c(C(=O)Nc3cnn(C(c4cccc(S(C)(=O)=O)c4)C4CC4)c3)n[nH]c2C1 (single isomer, unassigned) [Example 125b, N-(1-(cyclopropyl(3-(methylsulfonyl)phenyl)methyl)-1H-pyrazol-4-yl)-6,6-dimethyl-4,5,6,7-tetrahydro-1H-indazole-3-carboxamide] | 10 |
| CC1(C)CCc2c(C(=O)Nc3cnn(Cc4cccnc4N)c3)n[nH]c2C1 [Example 112, N-(1-((2-aminopyridin-3-yl)methyl)-1H-pyrazol-4-yl)-6,6-dimethyl-4,5,6,7-tetrahydro-1H-indazole-3-carboxamide] | 6 |
| CN(C)CCn1cc(NC(=O)c2n[nH]c3c2CCC(C)(C)C3)cn1 [Example 72, N-(1-(2-(dimethylamino)ethyl)-1H-pyrazol-4-yl)-6,6-dimethyl-4,5,6,7-tetrahydro-1H-indazole-3-carboxamide] | 78 |
| CC1(O)CCc2c(C(=O)Nc3cnn(Cc4ccccc4)c3)n[nH]c2C1 (stereo not drawn) [Example 51b, N-(1-benzyl-1H-pyrazol-4-yl)-6-hydroxy-6-methyl-4,5,6,7-tetrahydro-1H-indazole-3-carboxamide] | 860 |
| CC(c1cncc(F)c1)n1cc(NC(=O)c2n[nH]c3c2CCC(C)(C)C3)cn1 (single isomer, unassigned) [Example 108b, N-(1-(1-(5-fluoropyridin-3-yl)ethyl)-1H-pyrazol-4-yl)-6,6-dimethyl-4,5,6,7-tetrahydro-1H-indazole-3-carboxamide] | 5 |
| CC1(C)CCc2c(C(=O)Nc3cnn(C(c4ccccc4)C4(F)CNC4)c3)n[nH]c2C1 (single isomer, unassigned) [Example 49a, N-(1-((3-fluoroazetidin-3-yl)(phenyl)methyl)-1H-pyrazol-4-yl)-6,6-dimethyl-4,5,6,7-tetrahydro-1H-indazole-3-carboxamide] | 10 |
